Reference: US11339189B2, “DNA primase and gyrase inhibitors” (B. G. NEGEV TECHNOLOGIES AND APPLICATIONS LTD., AT …, priority 2016, dated 2022)

How the values were obtained:
[1] = target: T1, T7 DNA primase (primase domain of bacteriophage T7 gene 4 protein, residues 1-271) (Escherichia phage T7, UniProt P03692); assay: Oligoribonucleotide synthesis assay: template-directed diribonucleotide (pppAC) synthesis catalyzed by the T7 DNA primase domain (FIG. 5); assay type: biochemical; details: T7 gene 4 primase domain (residues 1-271, expressed in E. coli BL21(DE3)); DNA template with recognition site 5'-GTC-3' (5'-GGGTCA10-3'), ATP, [α-32P]-CTP, 10 mM MnCl2, pH 7.5; gel autoradiography of pppAC; four parameter logistic fit; parenthesised figure not explained
T1 construct: T7 primase domain (residue: 1-271) was over-produced and purified; made in house; host or cells: E. coli BL21(DE3), plasmid pETg4P
T1 sequence (P03692 1-271): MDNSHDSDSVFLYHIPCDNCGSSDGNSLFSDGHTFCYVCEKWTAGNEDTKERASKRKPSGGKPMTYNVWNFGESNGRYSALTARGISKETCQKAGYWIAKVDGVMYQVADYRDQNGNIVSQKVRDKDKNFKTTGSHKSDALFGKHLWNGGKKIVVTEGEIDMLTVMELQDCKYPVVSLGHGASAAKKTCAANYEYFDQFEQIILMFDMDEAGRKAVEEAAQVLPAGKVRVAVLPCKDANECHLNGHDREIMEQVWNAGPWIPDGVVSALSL
From the text: FIGS. 5A-C present a scheme summarizing the assay in which the DNA template containing the primase recognition site 5′-GTCA10-3′ enables the synthesis of only diribonucleotides pppAC (FIG. 5A), and gel bands and quantification of gel bands representing the reaction products (5′-pppAC-3′) (FIG. 5B and FIG. 5C, respectively).
Protein expression and purification: Proteins and Reagents. All chemical reagents were of molecular biology grade (Sigma); ATP and CTP (Roche Molecular Biochemicals). dNTPs and ddNTPs were purchased from USB Corp. Premade gels (10-20% linear gradients) used for SDS-PAGE and Precision Plus Protein prestained standards were purchased from BioRad (Hercules, Calif.). T7 primase domain (residue: 1-271) was over-produced and purified using metal free buffers as previously described in Mol Cell 11, 1349-60 (2003). T7 gp5 and E. Coli trx were overproduced and purified as described in J. Biol. Chem. 262, 16224-32 (1987). Gp4 was overproduced and purified as described in J. Biol. Chem. 272, 18425-33 (1997). M13 ssDNA was prepared as described in J. Biol. Chem. 261, 15208-16 (1986). [α-^32P]-CTP (800 Ci/mmol) was purchased from Perkin Elmer.
(§1) Oligoribonucleotide Synthesis Assay: Oligoribonucleotides were synthesized by DNA primase, product was measured as described in J Biol Chem 272, 5943-51 (1997) and in J Biol Chem 266, 23240-50 (1991), in reactions containing various concentrations (1.1, 3.3, and 10 μM) of gene 4 primase domain. […]
(§2) Small molecules that inhibit primase activity: to catalyze the synthesis of short RNA primers, T7 primase requires DNA with a primase recognition site, ATP and CTP, and a buffer containing divalent metal ions. […] The radioactively labeled oligoribonucleotides were separated on a denaturing polyacrylamide gel, and radioactivity was measured on an autoradiogram. The amounts of RNA-primed DNA syntheses were determined by measuring the incorporation of dTMP (see Methods). […]

[2] = target: T2, T7 primase (gp4) with gp5/trx (Escherichia phage T7, UniProt P03692); assay: Primase dependent DNA synthesis (gp4 primers extended by gp5/trx on M13 ssDNA); assay type: biochemical, bacteriophage T7; details: 350 μM of each small molecule, FIG. 4B
T2 construct: the helicase-primase (gene product 4, gp4, full-length) was run; made in house
T2 sequence (P03692 whole entry): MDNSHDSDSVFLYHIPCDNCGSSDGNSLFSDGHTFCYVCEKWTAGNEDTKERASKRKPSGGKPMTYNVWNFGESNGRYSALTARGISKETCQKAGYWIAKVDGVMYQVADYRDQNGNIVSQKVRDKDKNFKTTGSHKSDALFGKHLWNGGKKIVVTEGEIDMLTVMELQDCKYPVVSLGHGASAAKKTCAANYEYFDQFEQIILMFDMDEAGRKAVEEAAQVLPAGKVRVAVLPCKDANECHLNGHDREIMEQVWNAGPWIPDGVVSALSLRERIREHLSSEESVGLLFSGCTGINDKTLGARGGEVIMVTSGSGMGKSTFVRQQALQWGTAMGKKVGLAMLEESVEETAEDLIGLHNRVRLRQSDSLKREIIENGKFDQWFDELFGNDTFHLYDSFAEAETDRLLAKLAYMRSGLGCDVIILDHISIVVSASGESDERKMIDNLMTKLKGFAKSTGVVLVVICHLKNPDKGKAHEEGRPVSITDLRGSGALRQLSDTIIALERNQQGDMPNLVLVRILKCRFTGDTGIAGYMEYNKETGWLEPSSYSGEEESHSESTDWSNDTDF
Protocol: Primase dependent DNA synthesis: RNA primers made by gp4A were extended by gp5/trx. The reaction mixture contained 10 nM M13 ssDNA, 0.3 mM dNTPs, 0.1 μCi [α-^32P] dCTP, 20 nM gp5/trx, 200 nM monomeric gp4A, and 350 μM of each compound. The reaction was incubated for 45 min at 37° C. Reaction was terminated and amount of DNA synthesis was determined as described in DNA polymerase assay.
Small molecules that inhibit the concerted activity of primase and DNA polymerase: To evaluate the ability of the small molecule candidates to inhibit the primase-dependent replication of the lagging strand of bacteriophage DNA, an overall assay that involved the concerted activity of DNA polymerase (gene product 5 and E. coli thioredoxin, gp5/trx) and the helicase-primase (gene product 4, gp4, full-length) was run. In bacteriophage T7, lagging strand DNA synthesis involves interactions between gp5/trx and gp4. Full-length gp4 is required for the synthesis of oligoribonucleotides to initiate the synthesis of Okazaki fragments.
To examine the effect of 350 μM of each small molecule on the synthesis of primers and their transfer to gp5/trx, M13 ssDNA for the synthesis of oligoribonucleotides by the primase and their extension by gp5/trx was used (FIG. 4b, inset). To initiate DNA synthesis, the primase must first synthesize tetraribonucleotides on the DNA and then transfer them to gp5/trx. In addition to the four dNTPs, ATP and CTP were also provided, and the primers that were synthesized included pppACCC, pppACAC, and pppACCA.
The Table in FIG. 6A presents the inhibitory effect of various small molecules on primase-dependent DNA synthesis mediated by gp5/trx and gene 4 helicase (gp4A). The standard reaction contained the ssM13 DNA template (10 nM), 0.3 mM dATP, dGTP, dCTP and [α-^32P] dTTP (0.1 mCi), 10 nM gp5/trx, 200 nM monomeric concentrations of […] and 250 μM of small molecule inhibitors. After incubation for 30 min at 37° C., the level of […] was determined based on the amount of [α-^32P] dTTP incorporated into DNA.

[3] = target: T3, T7 DNA primase (Escherichia phage T7, UniProt P03692); assay: [1H,15N]-TROSY HSQC titration of labeled primase with compounds; assay type: binding, bacteriophage T7; details: compared to free T7 primase
T3 construct: T7 primase domain (residue: 1-271) was over-produced and purified using metal free buffers; made in house; host or cells: E. coli Bl21(DE3) containing pETg4P
T3 sequence (P03692 1-271): as the sequence (P03692 1-271) above
Protocol: [^1H,^15N]-TROSY HSQC titration spectra of 15N,D T7 DNA primase with selected fragment molecules and compounds 1, 12, 13, 15, 17, ATP, and DNA were recorded at 25° C. on a Bruker DMX 800 MHz spectrometer equipped with TXI cryoprobes with Z gradient. Data were processed and analyzed using NMRPipe (Journal of Biomolecular NMR 6, 277-293 (1995)) and NMRView (Journal of Biomolecular Nmr 4, 603-614 (1994)).
Structural analysis of inhibitor-primase interactions: To characterize the binding of the compounds identified using FBVS, the [^15N, ^1H]-TROSY-HSQC spectra of ^15N- and D-labeled T7 primase in the presence of the selected lead compounds (FIGS. 7A-B) were measured. […] Relative to the initial scaffold alone, those shifts were more pronounced, which indicates stronger binding interactions. In addition, chemical shift perturbations upon the addition of DNA and ATP/CTP to the T7 primase domain confirmed that all three compounds bind to the active site. […] Compounds 12 and 15, whose polar dissolution values were the lowest from among the five inhibitors, were not able to achieve the concentrations needed for the protein-NMR experiments.

[4] = target: T3, T7 DNA primase; assay: Fragment based screening by STD NMR spectroscopy; assay type: binding, bacteriophage T7; details: ranked by total change in intensity and number of affected peaks; Maybridge Ro3 library
Protocol: NMR experiments—Fragment Based Screening: T7 primase was screened against the Maybridge Ro3 Diversity Fragment Library containing 1000 compounds using STD spectroscopy. Samples for 1D ligand-observed NMR studies contained […] T7 primase in 50 mM phosphate buffer in D2O and 10 compounds, resulting in a total of 100 samples. NMR spectra were recorded on a Bruker Avance 500 MHz equipped with a TXO cryoprobe with Z gradient and a NMR-CASE sample changer at 298 K. Ligand binding was probed using a saturation transfer difference pulse program. Saturation was achieved using on-resonance irradiation at 0 ppm with a train of Wurst pulses for a total saturation time of 1.5 s. Off resonance irradiation was centered at 40 ppm. Spectra were acquired with a sweep width of 8012.8 Hz, 8192 data points and 224 scans. Active compounds were identified by comparing the STD spectra with the corresponding reference spectra using the MestreNova software. Any compound with reduced peak intensities was considered a hit and ranked according to the percentage of intensity decrease and the number of affected peaks per compound.
Using the Maybridge Ro3 fragment library containing 1000 fragments, 100 NMR samples were prepared, each containing a mixture of 10 fragments and 50 μM T7 primase.
The 10 fragments were chosen to show minimal overlap of their 1H chemical shift to allow easy identification of the shifts. […]

[5] = Polar dissolution of inhibitors for protein-NMR experiments; assay type: physicochemical; details: among the five inhibitors
[6] = target: T4, T7 primase domain (Escherichia phage T7, UniProt P03692); assay: Oligoribonucleotide (pppAC diribonucleotide) synthesis assay; assay type: biochemical, bacteriophage T7; details: pppAC synthesis by T7 primase domain; four parameter logistic fit
T4 construct: T7 primase domain (residue: 1-271) was over-produced and purified using metal free buffers; made in house; host or cells: E. coli Bl21(DE3) containing pETg4P
T4 sequence (P03692 1-271): as above
Protocol: as §1, with “domain. Standard 10 μL reaction contained 5 μM of DNA template (5′-GGGTCA10-3′), 200 μM ATP, 200 μM [α-^32P]-CTP, and primase domain in a buffer containing 40 mM Tris-HCl (pH 7.5), 10 mM MnCl2, 10 mM DTT, and 50 mM potassium glutamate.” for “domain.”
as §2
The reaction conditions involve incubating the primase domain with an oligonucleotide containing a primase recognition sequence. […] After incubation, the radioactive products were analyzed by electrophoresis through 25% polyacrylamide gel containing 3 M urea and visualized using autoradiography.

| Compound | IC50 [1] [µM] | decrease of primase dependent DNA synthesis [2] | chemical shift perturbations of T7 primase upon compound addition [3] | further results |
| --- | --- | --- | --- | --- |
| O=C(Nc1ccc2c(c1)OCO2)c1cc2cccc([N+](=O)[O-])c2[nH]1 [Compound 15, N-(1,3-benzodioxol-5-yl)-7-nitro-1H-indole-2-carboxamide] | 56.7 | – | – | – |
| CCOC(=O)c1[nH]c2ccc([N+](=O)[O-])cc2c1CCC(=O)O [compound 13, 3-[2-(ethoxycarbonyl)-5-nitro-1H-indol-3-yl]propanoic acid] | – | decreases by up to four-fold | significant chemical shift perturbations | – |
| O=C1Cc2c([nH]c3ccc([N+](=O)[O-])cc23)-c2ccccc2N1 [Compound 12, 9-Nitro-7,12-dihydroindolo-[3,2-d][1]benzazepin-6(5)-one] | 109 | – | – | – |
| O=C(O)c1cc2cccc([N+](=O)[O-])c2[nH]1 [Compound 17, 7-nitro-1H-indole-2-carboxylic acid] | 314 | – | – | – |
| c1ccc2[nH]ccc2c1 [indole] | – | – | – | binding to T7 primase by STD spectroscopy (decrease in NMR peak intensities) [4]: strongest binding |
| O=C1Cc2c([nH]c3ccc([N+](=O)[O-])cc23)-c2ccccc2N1 [compound 12, 9-Nitro-7,12-dihydroindolo-[3,2-d][1]benzazepin-6(5)-one] | – | decreases by up to four-fold | – | polar dissolution values [5]: lowest; Hill coefficient [6]: highest value |
| O=C(O)/C=C/C1=Cc2cc(Cl)ccc2OC1 [compound 1, (2E)-3-(6-chloro-2H-chromen-3-yl)acrylic acid] | – | decreases by up to four-fold | significant chemical shift perturbations | – |
| NC(=S)C1=Cc2ccccc2OC1 [2H-chromene-3-carbothioamide] | – | – | – | binding to T7 primase by STD spectroscopy (decrease in NMR peak intensities) [4]: strongest binding |
| O=C(O)c1cc2cccc([N+](=O)[O-])c2[nH]1 [compound 17, 7-nitro-1H-indole-2-carboxylic acid] | – | decreases by up to four-fold | significant chemical shift perturbations | – |
| O=C(Nc1ccc2c(c1)OCO2)c1cc2cccc([N+](=O)[O-])c2[nH]1 [compound 15, N-(1,3-benzodioxol-5-yl)-7-nitro-1H-indole-2-carboxamide] | – | decreases by up to four-fold | – | polar dissolution values [5]: lowest |
